Patent US12576040B2, “Ionizable lipids and methods of manufacture and use thereof” (priority 2020, dated 2026)
Like-named read-outs stand apart in the source and are kept apart here. Marks after values point to notes of the source that are not given here.

Tests used:
[1] = physchem; format: physicochemical; conditions: for pKa: water soluble analogue
Description: The pH-dependence of proton NMR chemical shifts was used to measure the pKa's of the ionizable lipid water-soluble analogues (WSA) following published methods5,6. Chemical shifts of piperazine, imidazole, 2-chloroacetic acid and acetic acid were used as internal pH indicators. Solutions for MC3-WSA were prepared with 100 mM KCl, 2 mM piperazine, 2 mM imidazole, and 5 mM water soluble ionizable lipid analogue in 95% H2O-5% D2O. Solutions for the terminal(N1) and aza amines(N2) at the p-position of carboxylic esters of C24-WSA were prepared with 100 mM KCl, 2 mM piperazine, 2 mM imidazole, 0.2 mM DSS, and 5 mM water soluble ionizable lipid analogue in 95% H2O-5% D2O. Solutions for the internal amine (N3) of C24-WSA were prepared with 100 mM KCl, 2 mM chloroacetic acid, 2 mM acetic acid, 0.2 mM DSS, and 5 mM water soluble ionizable lipid analogue in 95% H2O-5% D2O. Solutions were split into two equal volumes and one titrated to a lower pH using 0.1 M HCl and the other to an upper pH using 0.1 M NaOH where the lower and upper pH bracketed the desired range of pH. Intermediate pH values were obtained by mixing different proportions of these two solutions. NMR measurements were performed on a Bruker 400 MHz spectrometer where 1H spectra were acquired at each of ˜24 pH values ranging from the lower to upper pH. […] Chemical shifts from piperazine, imidazole, 2-chloroacetic acid, and acetic acid were then used to calculate the pH of each solution according to published methods5,6 and the chemical shifts of protons adjacent to each nitrogen in the ionizable lipid water sluble analogue headgroup were fit to the Henderson-Hasselbalch equation to provide the pKa of each Nitrogen. Spectra are in Supplementary FIG. 2.

[2] = mRNA copies per LNP from molecular volume model and DLS diameter; format: physicochemical; conditions: average mRNA copies per LNP
Description: Exemplary ADDE ionizable lipids. pKas were obtained from ACDLabs Percepta for the ionizable lipid, and by zeta potential and TNS for LNPs containing the ionizable lipids. LNP isoelectric pI was obtained from the zeta potential. LNP diameter is number-average from DLS. Average mRNA copies per LNP was calculated using a molecular volume model and the DLS diameter and is proportional to LNP volume.
LNPs were diluted to 6.25 ng/μL total mRNA in PBS pH=7.4 and transferred into a quartz cuvette (ZEN2112) to measure size by Dynamic Light Scattering (DLS) in the Zetasizer Nano ZS (Malvern Panalytical) using particle RI of 1.45 and absorption of 0.001 in PBS at 25° C. with viscosity of 0.888 cP and RI of 1.335. Measurements were made using a 1730 backscatter angle of detection previously equilibrated to 25° C. for 30 seconds in duplicates, each with 5 runs and 10 second run duration, without delay between measurements. […] Data was analyzed using a General-Purpose model with normal resolution. Diameter are reported as the number-average that corresponds more closely to physical size seen in electron microscopy versus the zeta-average. A molecular volume model described previously was used to estimate the number of mRNA copies in the LNP using the number average diameter to calculate LNP volume. LNPs were diluted into the TNS buffer described above at pH ranging from 3-10 for zeta potential measurement by Electrophoretic Light Scattering (ELS) in the Zetasizer Nano ZP (Malvern Panalytical) using the same material and dispersant parameters described above and the Smoluchowski model. Each measurement had voltage set manually at 80 Volts to avoid ohmic heating that occurred if voltage was set automatically. Measurements in the disposable folded capillary cuvette with an automatic attenuation selection for photon counts were made in triplicates for 20 runs each, and 30 second delay between each replicate. Mathematica was used to fit zeta potential data to the data to the extended Henderson-Hasselbalch equation Ψ=Ψ_max−((Ψ_max−Ψ_min))/((1+10^(((pKa−pH))/n))) to provide the pKa, n and low pH and high pH zeta potential limits Ψ_max and Ψ_min, respectively. The extended model is used here, since the LNP pKa is ionization-state-dependent in a way similar to a polyelectrolyte. […] The isoelectric pI was the pH found by interpolating zeta potential to zero. Cryoelectron Microscopy

[3] = format: physicochemical; conditions: LNP containing the ionizable lipid
Description: • A: Ribogreen Assay for mRNA Encapsulation Efficiency. 1×TE Buffer and Triton Buffer (2% v/v in 1×TE Buffer) were added in duplicates into a black microplate per LNP. LNPs were diluted to 4 ng/ul in 1×DPBS pH 7.4 and added to each TE/Triton well in a ratio 1:1. Two standard curves were included in the Ribogreen Assay, one containing mRNA and 1×TE Buffer and other containing mRNA and Triton Buffer. Each one of these standard curves were used to calculate the mRNA concentration in each TE Buffer or Triton Buffer. This approach using two standard curves is more accurate for calculating the encapsulation efficiency and mRNA concentrations, in comparison to a single standard curve. Standards were included in the microplate after diluted LNPs were added to the plate. Microplates were incubated at 37° C. for 10 minutes to extract LNPs with Triton. Ribogreen reagent was diluted 1:100 in 1×TE Buffer and added to each well in a ratio 1:1. Microplates were immediately introduced into the Cytation 5 Cell Imaging Multi-Mode Reader (Biotek) to read Fluorescence (Ex485/Em528). The results are illustrated in FIG. 34. • B: Dynamic Light Scattering for LNP Size (red dots are PDI right y axis). LNPs were diluted to 6.25 ng/ul in 1×DPBS pH 7.4 and transferred into a quartz cuvette (ZEN2112) to measure size by Dynamic Light Scattering (DLS) in the Zetasizer Nano ZS (Malvern Panalytical) using particle RI of 1.45 and Absorption of 0.001 in 1×PBS at 25° C. with viscosity of 1.02 cP and RI of 1.335. Measurements were made using a 173° Backscatter angle of detection previously equilibrated to 25° C. for 30 seconds in duplicates, each with 5 runs and 10 second run duration, without delay between measurements. […] Data was analyzed using a General-Purpose model with normal resolution. The results are illustrated in FIG. 35. • C: Zeta Potential for LNP charge, pKa and pI. LNPs were diluted in a 75 mM TNS Buffer (10 mM of each of glycylglycine, acetate, imidazole, 20 mM borate, 25 mM NaCl) to contain 0.8 mg of total mRNA in 800 ul of the TNS Buffer and transferred into a Folded Capillary Zeta Cell (DTS1070) to measure size by Dynamic Light Scattering (DLS) and electrophoretic mobility by Electrophoretic Light Scattering (ELS) in the Zetasizer Nano ZS (Malvern Panalytical). Zeta potential is measured under conditions of controlled voltage to limit ohmic heating in a solution with 4 buffers with pKas spread across the pH range 3-10 with 0.5 intervals. LNP pKa is calculated by fitting the Henderson Hasselbalch equation to zeta potential data. LNP pI is found by interpolating zeta potential to zero. We use electrokinetic models to calculate Henry's function and charge of the LNP. The results are illustrated in FIG. 36. • D: TNS Assay for LNP pKa. […] Fluorescence TNS is measured in a solution with 4 buffers with pKas spread across the pH range 3-10 with 0.5 intervals. The pKa of the LNP was measured using the pH-dependence of fluorescence enhancement of the anionic dye TNS, higher intensity at lower pH and lower at high pH. LNP pKa is calculated by fitting the Henderson Hasselbalch equation to fluorescence data from the TNS Assay. […]
LNP pKa was determined using the TNS assay. […] The Cytation 5 Cell Imaging Multi-Mode Reader (Biotek) was used to read Fluorescence (Ex321/Em445). The pH was measured in each well after TNS addition. […]

[4] = format: physicochemical; conditions: for pKa,ZP: LNP containing the ionizable lipid, Henderson Hasselbalch fit to zeta potential; for pI, ZP: LNP isoelectric pI from zeta potential
Description: (§1) • A: Ribogreen Assay for mRNA Encapsulation Efficiency. 1×TE Buffer and Triton Buffer (2% v/v in 1×TE Buffer) were added in duplicates into a black microplate per LNP. LNPs were diluted to 4 ng/ul in 1×DPBS pH 7.4 and added to each TE/Triton well in a ratio 1:1. Two standard curves were included in the Ribogreen Assay, one containing mRNA and 1×TE Buffer and other containing mRNA and Triton Buffer. Each one of these standard curves were used to calculate the mRNA concentration in each TE Buffer or Triton Buffer. This approach using two standard curves is more accurate for calculating the encapsulation efficiency and mRNA concentrations, in comparison to a single standard curve. Standards were included in the microplate after diluted LNPs were added to the plate. Microplates were incubated at 37° C. for 10 minutes to extract LNPs with Triton. Ribogreen reagent was diluted 1:100 in 1×TE Buffer and added to each well in a ratio 1:1. Microplates were immediately introduced into the Cytation 5 Cell Imaging Multi-Mode Reader (Biotek) to read Fluorescence (Ex485/Em528). The results are illustrated in FIG. 34. • B: Dynamic Light Scattering for LNP Size (red dots are PDI right y axis). LNPs were diluted to 6.25 ng/ul in 1×DPBS pH 7.4 and transferred into a quartz cuvette (ZEN2112) to measure size by Dynamic Light Scattering (DLS) in the Zetasizer Nano ZS (Malvern Panalytical) using particle RI of 1.45 and Absorption of 0.001 in 1×PBS at 25° C. with viscosity of 1.02 cP and RI of 1.335. Measurements were made using a 173° Backscatter angle of detection previously equilibrated to 25° C. for 30 seconds in duplicates, each with 5 runs and 10 second run duration, without delay between measurements. […] Data was analyzed using a General-Purpose model with normal resolution. The results are illustrated in FIG. 35. • C: Zeta Potential for LNP charge, pKa and pI. LNPs were diluted in a 75 mM TNS Buffer (10 mM of each of glycylglycine, acetate, imidazole, 20 mM borate, 25 mM NaCl) to contain 0.8 mg of total mRNA in 800 ul of the TNS Buffer and transferred into a Folded Capillary Zeta Cell (DTS1070) to measure size by Dynamic Light Scattering (DLS) and electrophoretic mobility by Electrophoretic Light Scattering (ELS) in the Zetasizer Nano ZS (Malvern Panalytical). Zeta potential is measured under conditions of controlled voltage to limit ohmic heating in a solution with 4 buffers with pKas spread across the pH range 3-10 with 0.5 intervals. LNP pKa is calculated by fitting the Henderson Hasselbalch equation to zeta potential data. LNP pI is found by interpolating zeta potential to zero. We use electrokinetic models to calculate Henry's function and charge of the LNP. The results are illustrated in FIG. 36. • D: TNS Assay for LNP pKa. LNPs were diluted to keep a final concentration of 75 uM of the ionizable lipid and 6 uM of TNS in a 75 mM TNS Buffer (10 mM of each of glycylglycine, acetate, imidazole, 20 mM borate, 25 mM NaCl) in order to keep a ratio TNS/ionizable of 0.08. Fluorescence TNS is measured in a solution with 4 buffers with pKas spread across the pH range 3-10 with 0.5 intervals. The pKa of the LNP was measured using the pH-dependence of fluorescence enhancement of the anionic dye TNS, higher intensity at lower pH and lower at high pH. LNP pKa is calculated by fitting the Henderson Hasselbalch equation to fluorescence data from the TNS Assay. The results are illustrated in FIG. 37.
LNPs were diluted to 6.25 ng/μL total mRNA in PBS pH=7.4 and transferred into a quartz cuvette (ZEN2112) to measure size by Dynamic Light Scattering (DLS) in the Zetasizer Nano ZS (Malvern Panalytical) using particle RI of 1.45 and absorption of 0.001 in PBS at 25° C. with viscosity of 0.888 cP and RI of 1.335. Measurements were made using a 1730 backscatter angle of detection previously equilibrated to 25° C. for 30 seconds in duplicates, each with 5 runs and 10 second run duration, without delay between measurements. […]

[5] = Dynamic Light Scattering for LNP size; format: physicochemical; conditions: number-average from DLS
Description: as §1, with “37. […]” for “37.”

[6] = format: physicochemical; conditions: Table 11a
Description: In certain embodiments, the pKa of the Ionizable Lipids of the Invention included in the LNP is measured by fluorescent enhancement of an anionic lipophilic dye TNS binding to the LNP containing the ionizable lipid. Prior studies have shown that the TNS pKa needs to be near 6.5 for efficient delivery to liver upon IV administration. The pKa in the aqueous phase can be predicted by software such ACDLabs Percepta, resulting in pKas that are higher than the TNS pKa. Given the importance of the LNP pKa in determining their efficiency, we developed new methods (zeta potential, ^1H NMR, modeling) to link the intrinsic pKa of the ionizable lipid to LNP ionization properties, in order to rationally design effective systems for mRNA delivery.
In certain embodiments, the hydrophilic DMG-PEG forms the shell of the LNP. The amount of nucleic acid is represented by the NP mole ratio of the amine on the ionizable lipid to the phosphate groups on the nucleic acid backbone and is typically 3-6. In certain embodiments, the pKa of the LNP to be in the 6-7 range corresponding to the pH in the early endosome. […] The pKa of the LNP was measured using the pH-dependence of fluorescence enhancement of the anionic dye TNS. In certain embodiments, the pKa-dependent endosomal release mechanism was described as an ion-pairing event between the cationic protonated ionizable lipid and anionic endosomal phospholipids where a divergent cone-shape lipid tail of the ionizable lipid facilitates membrane rupture.

[7] = Table 11a; known ionizable lipids, LNP pKa; cited from earlier work

SMILES	difference between NMR-measured and theoretical pKas [1]	pKa ([1]; read-out: pKa by 1H NMR, central nitrogen)	pKa ([1]; read-out: pKa by 1H NMR, nitrogen closest to the linker)	pKa ([1]; read-out: pKa by 1H NMR, terminal nitrogen)	mRNA copies [2]	pKa, TNS [3]	pKa,ZP [4]	pI, ZP [4]	Diameter (nm) [5]	ΔpKa = Classic-Galas [6]	ΔpKa = Classic-TNS [6]	pKa, TNS [7]
CN1CCN(CCCCN(CCC(=O)OC(C)(C)C)CCC(=O)OC(C)(C)C)CC1 [Lipid C24-WSA]	≤ 0.4 units	3.7	7.5	8.1								
CCCCC/C=C\C/C=C\CCCCCCCCOC(=O)CCN(CCC(=O)OCCCCCCCC/C=C\C/C=C\CCCCC)CCN1CCCC1 (racemic) [DL-C2/C2-Pyr]					1.5	7.9	6.8	7.2	48 nm			
CCCCCCCCCCOC(=O)CCCCCN(CCO)CCCCCCCC(=O)OC(CCCCCCCC)CCCCCCCC [Moderna Lipid H]										3.12	2.22	6.68
CCCCCCCCCCC(CCCCCCCC)COC(=O)CCN(CCC(=O)OCC(CCCCCCCC)CCCCCCCCCC)CCN1CCN(C)CC1 (stereo not shown) [BODD-C2/C2-PipZ]					1.9	6.6	5.4	5.9	49 nm			
CCCCCCCCCCC(CCCCCCCC)COC(=O)CCN(CCCCN1CCN(C)CC1)CCC(=O)OCC(CCCCCCCC)CCCCCCCCCC (stereo not shown) [BODD-C2/C4-PipZ]					3.3	7.0	4.9*	5.8	55 nm			
